# Experimental data published in patent US8859620B2, “Phthalanilate compounds and methods of use” (University of Notre Dame du Lac, priority 2009, dated 2014).
# What was measured:
# surface domain of B1aR = surface domain of B1aR (Staphylococcus aureus, UniProt P18357); test: B1aR assay (BOCILLIN FL labeling, SDS-PAGE); format: binding, Staphylococcus aureus (MRSA); conditions: Table 10; class symbols x/xx/xxx, key not given
# Method: (§1) β-Lactamase Assays (TEM-1, P99, and OXA-10): The activity of the compounds of the invention (inhibitors) toward β-lactamases was evaluated using 96 well plates. The reaction mixture included 10 mM sodium phosphate, pH 7.0, 150 mM sodium chloride, 0.01% Triton X-100, 100 μM nitrocefin, 10 nM of β-lactamases (class A: TEM-1; class C: P99, or class D: OXA-10), and variable concentrations of the inhibitors in a total volume of 100 μL. β-Lactamases were pre-incubated with the compounds at room temperature for 5 minutes, and the assay was initiated by the addition of nitrocefin. The inhibition of the enzyme activity by the compounds was determined by monitoring color change (from yellow to red) of nitrocefin after 20 minutes. Stock solutions of the compounds were prepared in dimethyl sulfoxide (DMSO). No more than 5% DMSO was present in assays, unless noted otherwise. B1aR Assay: The surface domain of B1aR (1 μM) was added to each inhibitor (at various concentrations) in 100 mM sodium phosphate, 50 mM sodium bicarbonate, at pH 7.0. The reaction mixtures were incubated at room temperature for 20 minutes. BOCILLIN FL, a fluorogenic ligand, was added to a concentration of 20 μM in a final volume of 20 μL. The mixtures were incubated at 37° C. for 5 minutes, at which point the reactions were quenched by the addition of 15 μL of the SDS sample buffer (125 mM Tris, 4% SDS, 20% glycerol, 2% 2-mercaptoethanol, pH 6.8), and were boiled for 4 minutes. The samples were loaded onto 15% SDS-PAGE, the gel was developed and scanned using a Storm 840® Fluorimager. The fluorescent bands of BOCILLIN FL-labeled B1aR^S were analyzed by Image Quant 5.2 software. PBP2 Assay: The PBP2 assay was performed according to the methods of Villegas-Esterada et al. (J. Am. Chem. Soc. 2008, 130, 9212-9213).
# [1] = biological target: TEM-1 (class A β-lactamase) (Escherichia coli, UniProt P62593); test: β-Lactamase assay (nitrocefin colour change), TEM-1; format: biochemical; conditions: for TEM-1: Table 10, class symbols x/xx/xxx, key not given
# TEM-1 (class A β-lactamase), sequence (P62593 24-286 limits assumed): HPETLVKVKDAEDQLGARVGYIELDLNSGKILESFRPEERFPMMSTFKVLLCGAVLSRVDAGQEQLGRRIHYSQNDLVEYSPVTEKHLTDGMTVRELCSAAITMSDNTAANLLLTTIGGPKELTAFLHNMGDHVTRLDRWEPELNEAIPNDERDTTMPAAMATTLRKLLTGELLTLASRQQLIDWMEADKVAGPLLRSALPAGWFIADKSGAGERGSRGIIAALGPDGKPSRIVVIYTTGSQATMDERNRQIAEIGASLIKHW
# Method: as §1
# [2] = biological target: OXA-10 (class D β-lactamase) (Pseudomonas aeruginosa, UniProt P14489); test: β-Lactamase assay (nitrocefin colour change), OXA-10; format: biochemical; conditions: for OXA-10: Table 10, class symbols x/xx/xxx, key not given; for IC50: nitrocefin 100 μM, 10 nM enzyme, 5 min pre-incubation, read-out: IC50s OXA-10
# OXA-10 (class D β-lactamase), sequence (P14489 20-266, species assumed): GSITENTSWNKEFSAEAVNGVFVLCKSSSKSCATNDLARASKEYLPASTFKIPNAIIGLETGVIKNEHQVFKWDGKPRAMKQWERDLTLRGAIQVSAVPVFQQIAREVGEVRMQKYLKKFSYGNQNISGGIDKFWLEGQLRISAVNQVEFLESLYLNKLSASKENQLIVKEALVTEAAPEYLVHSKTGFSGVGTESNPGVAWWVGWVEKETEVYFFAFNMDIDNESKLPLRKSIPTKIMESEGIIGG
# Method: as §1
# [3] = biological target: P99 (class C β-lactamase) (Enterobacter cloacae, UniProt P05364); test: β-Lactamase assay (nitrocefin colour change), P99; format: biochemical; conditions: for P99: Table 10, class symbols x/xx/xxx, key not given; for IC50: nitrocefin 100 μM, 10 nM enzyme, 5 min pre-incubation, read-out: IC50s P99
# P99 (class C β-lactamase), sequence (P05364 21-381): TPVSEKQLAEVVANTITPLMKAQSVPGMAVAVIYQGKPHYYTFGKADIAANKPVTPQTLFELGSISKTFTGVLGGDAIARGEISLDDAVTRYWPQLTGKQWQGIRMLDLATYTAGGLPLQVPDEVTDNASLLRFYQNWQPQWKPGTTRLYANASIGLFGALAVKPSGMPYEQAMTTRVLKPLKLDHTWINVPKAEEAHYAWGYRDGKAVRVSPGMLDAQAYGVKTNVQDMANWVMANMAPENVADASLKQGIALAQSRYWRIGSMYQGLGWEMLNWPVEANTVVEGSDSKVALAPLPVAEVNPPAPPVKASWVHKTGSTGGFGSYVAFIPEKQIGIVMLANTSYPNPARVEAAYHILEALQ
# Method: as §1
# PBP2a = PBP2a (Staphylococcus aureus, UniProt P07944); test: PBP2 assay (Villegas-Esterada et al.); format: biochemical; conditions: Table 10
# PBP2a, sequence (P07944 whole entry): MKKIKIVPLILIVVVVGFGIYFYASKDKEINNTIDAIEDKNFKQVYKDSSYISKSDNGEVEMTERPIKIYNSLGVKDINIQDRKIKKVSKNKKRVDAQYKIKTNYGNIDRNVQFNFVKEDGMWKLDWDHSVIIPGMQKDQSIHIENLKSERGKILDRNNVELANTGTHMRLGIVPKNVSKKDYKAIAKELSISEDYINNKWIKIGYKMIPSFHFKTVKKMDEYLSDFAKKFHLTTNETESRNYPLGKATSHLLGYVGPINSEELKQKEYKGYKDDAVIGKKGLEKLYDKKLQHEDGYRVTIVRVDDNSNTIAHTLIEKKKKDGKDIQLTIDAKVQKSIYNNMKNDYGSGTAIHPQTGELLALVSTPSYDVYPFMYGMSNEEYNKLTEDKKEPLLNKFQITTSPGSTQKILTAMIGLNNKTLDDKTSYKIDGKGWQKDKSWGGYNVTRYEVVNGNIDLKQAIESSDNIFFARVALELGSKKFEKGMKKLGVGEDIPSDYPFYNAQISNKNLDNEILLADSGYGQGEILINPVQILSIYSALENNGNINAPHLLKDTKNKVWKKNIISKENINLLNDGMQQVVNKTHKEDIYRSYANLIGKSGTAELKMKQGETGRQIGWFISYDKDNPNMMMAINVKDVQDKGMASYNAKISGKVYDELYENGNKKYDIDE
# Method: as §1
# S. aureus NRS11 (Mec^S) = test: MIC against S. aureus NRS11 (Table 13); format: cell-based, Staphylococcus aureus; conditions: for MIC: Staphylococcus aureus, compounds dissolved in DMSO or 1% sodium carbonate, read-out: MIC; for inhibitory properties (in words): Table 13
# Method: All recited compounds were dissolved in DMSO or in 1% sodium carbonate and transferred to micro titer plates to final concentrations of 1000 μg/mL.
# S. aureus NRS100 (Mec^R) = test: MIC against S. aureus NRS100 (Table 14); format: cell-based, Staphylococcus aureus; conditions: for MIC: Staphylococcus aureus, compounds dissolved in DMSO or 1% sodium carbonate, read-out: MIC; for inhibitory activity (in words): Table 14
# Method: The recited compounds were dissolved in DMSO or in 1% sodium carbonate and transferred into micro titer plate to final concentration of 1000 μg/mL.
# [4] = test system: methicillin-resistant strains of S. aureus; test: MIC against methicillin-resistant S. aureus (Table 15); format: cell-based; conditions: Staphylococcus aureus, dissolved in 100% DMSO, diluted into Mueller Hinton II Broth to final 16 μg/mL
# Text: Table 15 illustrates the inhibition of methicillin-resistant strains of S. aureus by selected compounds of the invention.
# surface domain of B1aR, sequence (P18357 331-585): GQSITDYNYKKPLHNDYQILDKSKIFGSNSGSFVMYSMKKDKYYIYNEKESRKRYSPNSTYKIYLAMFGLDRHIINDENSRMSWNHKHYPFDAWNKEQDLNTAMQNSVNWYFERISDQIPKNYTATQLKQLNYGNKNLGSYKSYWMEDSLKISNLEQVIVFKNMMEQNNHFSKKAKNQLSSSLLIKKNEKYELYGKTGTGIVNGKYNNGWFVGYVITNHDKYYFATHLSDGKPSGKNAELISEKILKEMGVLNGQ
Compound,BlaR (surface domain of B1aR),IC50 [1],TEM-1 [1],OXA-10 [2],IC50 [2],P99 [3],IC50 [3],PBP2a* (inhibitory concentration) (PBP2a),MIC (S. aureus NRS11 (Mec^S)),MIC (S. aureus NRS100 (Mec^R)),inhibitory properties (in words) (S. aureus NRS11 (Mec^S)),inhibitory activity (in words) (S. aureus NRS100 (Mec^R)),MIC [4]
CCCCCCCCCCOc1ccc(N(C)C(=O)c2c(Br)c(Br)c(Br)c(Br)c2C(=O)O)cc1 [Compound 316],xx,,,,,,,,,,,,
CCCCCCCCCCCCCCCCOc1ccc(NC(=O)c2c(Br)c(Br)c(Br)c(Br)c2C(=O)O)cc1 [Compound 291],xx,0.2 ± 0.04 µM,xxx,xxx,0.3 ± 0.06 µM,xxx,0.2 ± 0.02 µM,,,,,,
CCCCCCCCCCOc1ccc(N(C)C(=O)c2ccccc2C(=O)O)cc1 [Compound 318],xxx,,,,,,,,,,,,
O=C(O)c1c(Br)c(Br)c(Br)c(Br)c1C(=O)Nc1ccc(Oc2ccccc2)cc1 [Compound 222],,,,,,,,xx,,,,,
O=C(O)c1c(F)c(F)c(F)c(F)c1C(=O)Nc1ccc(OCc2cccc(C(F)(F)F)c2)c(Cl)c1 [Compound 388],,,xx,xx,,,,,128 µg/mL,128 µg/mL,,,
CCCCCCCCCCOc1ccc(NC(=O)c2c(Br)c(Br)c(Br)c(Br)c2C(=O)O)cc1 [Compound 329],xxx,,,,,,,,,,,,
Cc1ccccc1COc1ccc(NC(=O)c2c(Cl)c(Cl)c(Cl)c(Cl)c2C(=O)O)cc1Cl [Compound 385],,,xx,xxx,,xx,,xxx,16 µg/mL,16 µg/mL,significant inhibitory properties,significant inhibitory activity,
CCCCCCCCCCCCCCCCOc1ccc(NC(=O)c2c(Cl)c(Cl)c(Cl)c(Cl)c2C(=O)O)cc1 [Compound 290],xxx,0.6 ± 0.06 µM,,xxx,0.5 ± 0.05 µM,xxx,0.4 ± 0.06 µM,,,,,,
O=C(O)c1ccccc1C(=O)Nc1ccc(OCc2cccc(OC(F)(F)F)c2)c(Cl)c1 [Compound 417],xx,,,,,,,,,250 µg/mL,,,
CCCCCCCCOc1ccc(NC(=O)c2c(F)c(F)c(F)c(F)c2C(=O)O)cc1 [Compound 271],xxx,,xxx,xxx,,xxx,,,,,,,
CCC(CO)NC(=O)C1=C(C(=O)O)SCCS1 (stereo not drawn) [Compound 126],,,,,,,,xx,,,,,
CC(Oc1ccc(NC(=O)c2c(Br)c(Br)c(Br)c(Br)c2C(=O)O)cc1Cl)c1ccccc1 (stereo not drawn) [Compound 382],,5.3 ± 1.1 µM,xxx,xxx,26.6 ± 1.6 µM,xxx,24.4 ± 1.9 µM,xxx,< 8 µg/mL,< 8 µg/mL,,significant inhibitory activity,
CCCCCCCCCCCCCCCCOc1ccc(NC(=O)c2c(F)c(F)c(F)c(F)c2C(=O)O)cc1 [Compound 289],xxx,23.1 ± 2.4 µM,,xxx,0.7 ± 0.15 µM,xx,1.2 ± 0.1 µM,,,,,,
CCCCCCCCOc1ccc(NC(=O)c2c(Br)c(Br)c(Br)c(Br)c2C(=O)O)cc1Cl [Compound 303],xx,,,,,,,,,4 µg/mL,,,4 µg/mL
CCCCCCCCOc1ccc(NC(=O)c2ccccc2C(=O)O)cc1 [Compound 270],xx,,xxx,xxx,,xxx,,,,,,,
CCCCCCCCOc1ccc(NC(=O)c2c(Cl)c(Cl)c(Cl)c(Cl)c2C(=O)O)cn1 [Compound 345],,4.9 ± 0.2 µM,xxx,xxx,37.9 ± 6 µM,xxx,27.8 ± 2.9 µM,,16 µg/mL,16 µg/mL,significant inhibitory properties,significant inhibitory activity,16 µg/mL
O=C(O)c1c(F)c(F)c(F)c(F)c1C(=O)Nc1ccc(Oc2cc(C(F)(F)F)cc(C(F)(F)F)c2)cc1 [Compound 412],xx,,,,,,,,,,,,
O=C(O)c1c(Cl)c(Cl)c(Cl)c(Cl)c1C(=O)Nc1ccc(Oc2cc(C(F)(F)F)cc(C(F)(F)F)c2)cc1 [Compound 413],,27 ± 2.9 µM,xxx,xxx,80.8 ± 7 µM,xxx,31.2 ± 6.4 µM,xxx,,8 µg/mL,,,16 µg/mL
O=C(O)c1c(Br)c(Br)c(Br)c(Br)c1C(=O)Nc1ccc(OCc2cccc(C(F)(F)F)c2)c(Cl)c1 [Compound 390],,1.9 ± 0.1 µM,xxx,xxx,14.2 ± 1.1 µM,xxx,6 ± 0.8 µM,xxx,< 8 µg/mL,< 8 µg/mL,,significant inhibitory activity,8 µg/mL
O=C(O)c1c(Cl)c(Cl)c(Cl)c(Cl)c1C(=O)Nc1ccc(OCc2cccc(C(F)(F)F)c2)c(Cl)c1 [Compound 389],,4.5 ± 0.4 µM,xxx,xxx,44.2 ± 3.4 µM,xxx,20.2 ± 3 µM,,< 8 µg/mL,< 8 µg/mL,significant inhibitory properties,significant inhibitory activity,
O=C(O)c1ccccc1C(=O)Nc1ccc(OCc2cccc(C(F)(F)F)c2)c(Cl)c1 [Compound 387],xx,,,,,,,,,,,,
O=C(O)c1c(F)c(F)c(F)c(F)c1C(=O)Nc1ccc(OCc2cccc(OC(F)(F)F)c2)c(Cl)c1 [Compound 418],xxx,,,xx,,,,,,125 µg/mL,,,
CCCCCCCCOc1ccc(NC(=O)c2ccccc2C(=O)O)cc1Cl [Compound 300],,0.7 ± 0.08 µM,xxx,xx,30.7 ± 2.8 µM,xx,10.3 ± 0.4 µM,xxx,,8 µg/mL,,,16 µg/mL
CCCCCCCCOc1ccc(NC(=O)c2c(Br)c(Br)c(Br)c(Br)c2C(=O)O)cn1 [Compound 346],,2.8 ± 0.3 µM,xxx,xxx,13.1 ± 0.8 µM,xxx,7.8 ± 1.2 µM,,< 8 µg/mL,< 8 µg/mL,significant inhibitory properties,significant inhibitory activity,8 µg/mL
O=C(O)c1ccc([N+](=O)[O-])cc1C(=O)Nc1ccc(OCc2cccc(OC(F)(F)F)c2)c(Cl)c1 [Compound 422],xxx,,xx,xx,,xx,,xxx,,125 µg/mL,,,
CCCCCCCCCCOc1ccc(N(C)C(=O)c2c(F)c(F)c(F)c(F)c2C(=O)O)cc1 [Compound 319],xxx,,,,,,,,,,,,
CCCCCCCCOc1ccc(NC(=O)c2c(Cl)c(Cl)c(Cl)c(Cl)c2C(=O)O)cc1Cl [Compound 302],,,,,,,,,,4 µg/mL,,,4 µg/mL
O=C(O)C1=C(C(=O)N[C@@H](CO)[C@@H](O)c2ccccc2)SCCS1 [Compound 127],,,,,,,,xx,,,,,
CCCCCCCCOc1ccc(NC(=O)c2c(F)c(F)c(F)c(F)c2C(=O)O)cc1Cl [Compound 301],xxx,5.1 ± 1 µM,xx,xxx,23 ± 2 µM,xxx,9.9 ± 1.7 µM,xxx,,16 µg/mL,,,
